From patent publication US20250011368A1, “DLL3 TARGETING PEPTIDES AND CONSTRUCTS THEREOF” (MARIANA ONCOLOGY INC., priority 2023, published 2025)
Bridge positions count the residues as written; N and C are the ends. Square brackets hold non-standard residues; d marks the D form. Peptide text beside a SMILES is read from it. * marks the point of attachment. ξ: configuration not given here. X2 = O=C(O)CN1CCN(CC(=O)O)CCN(CC(=O)NCCOCCOCCOCCOCCOCCOCCOCCOCC(=O)*)CCN(CC(=O)O)CC1; X4 = O=C(O)CN1CCN(CC(=O)O)CCN(CC(=O)N[C@H]2CC[C@H](CC(=O)*)CC2)CCN(CC(=O)O)CC1; DOTA = O=C(O)CN1CCN(CC(=O)O)CCN(CC(=O)*)CCN(CC(=O)O)CC1; Trp(5-OMe) = COc1ccc2[nH]cc(C[C@H](N)C(=O)O)c2c1; Trp(7-aza) = N[C@@H](Cc1c[nH]c2ncccc12)C(=O)O; 1Nal = N[C@@H](Cc1cccc2ccccc12)C(=O)O; 2Nal = N[C@@H](Cc1ccc2ccccc2c1)C(=O)O; ξW = NC(Cc1c[nH]c2ccccc12)C(=O)O; Octanoyl = CCCCCCCC(=O)*; Dab = NCC[C@H](N)C(=O)O; Hexanoyl = CCCCCC(=O)*; ξC = NC(CS)C(=O)O

Molecular target: T1, human DLL3 (Homo sapiens, UniProt Q9NYJ7)
T1 sequence (Q9NYJ7 27-618): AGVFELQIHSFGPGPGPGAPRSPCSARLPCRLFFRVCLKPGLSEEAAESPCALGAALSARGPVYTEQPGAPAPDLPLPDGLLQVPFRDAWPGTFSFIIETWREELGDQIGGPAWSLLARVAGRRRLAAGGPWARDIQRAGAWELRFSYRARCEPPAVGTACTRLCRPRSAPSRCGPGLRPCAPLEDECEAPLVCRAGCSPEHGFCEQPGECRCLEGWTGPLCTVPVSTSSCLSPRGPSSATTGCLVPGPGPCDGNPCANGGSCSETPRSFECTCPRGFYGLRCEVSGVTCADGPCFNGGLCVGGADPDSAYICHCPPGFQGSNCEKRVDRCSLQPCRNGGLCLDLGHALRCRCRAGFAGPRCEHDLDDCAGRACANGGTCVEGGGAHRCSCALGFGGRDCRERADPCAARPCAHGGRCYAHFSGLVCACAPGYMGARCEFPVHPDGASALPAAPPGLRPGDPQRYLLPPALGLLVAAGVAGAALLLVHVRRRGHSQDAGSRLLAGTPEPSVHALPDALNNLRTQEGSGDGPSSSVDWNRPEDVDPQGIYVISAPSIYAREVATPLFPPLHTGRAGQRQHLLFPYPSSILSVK
Assay: Affinity determination by Surface Plasmon Resonance (SPR)
Type: binding
Conditions: 25° C., biotinylated human DLL3 immobilized on streptavidin sensor chip, 1:1 binding model; read-out: SPR KD
Procedure: SPR studies were performed on the compounds disclosed herein using the following protocol.
Biotinylated target ligand human DLL3 was immobilized on a streptavidin sensor chip. A reference surface was set up for nonspecific binding and refractive index changes. For analysis of the kinetics of interactions, varying concentrations of samples were injected at a flow rate of 100 μL/minute using running buffer containing 20 mM phosphate buffer with 2.7 mM KCl, 137 mM NaCl, 0.05% Surfactant P20 and 2% DMSO. Sensorgram curves were fitted with 1:1 binding model, and affinity and kinetic parameters were obtained using Biacore Insight evaluation 4.0. software.

Kd [nM]	Compound
1 to 10	CC[C@H](C)[C@H](NC(=O)[C@@H](NC(=O)[C@H](Cc1c[nH]c2ccccc12)NC(C)=O)[C@@H](C)O)C(=O)N[C@H]1CSSC[C@@H](C(=O)N[C@@H](Cc2c[nH]c3ccccc23)C(=O)N2CCC[C@H]2C(=O)N[C@H](CCCCNC(=O)C[C@H]2CC[C@H](NC(=O)CN3CCN(CC(=O)O)CCN(CC(=O)O)CCN(CC(=O)O)CC3)CC2)C(N)=O)NC(=O)[C@H](CC(=O)O)NC(=O)[C@H](Cc2cnc[nH]2)NC(=O)[C@H](Cc2c[nH]c3ccccc23)NC(=O)[C@H](CC(N)=O)NC(=O)[C@H](CC(N)=O)NC1=O [compound 48, Ac-W-T-I-C(3)-N-N-W-H-D-C(3)-W-P-(D-Lys)-CyHex-DOTA-NH2] (Ac-WTICNNWHDCWP[dK](X4)-NH2; disulfide 4-10)
1 to 10	CC[C@H](C)[C@H](NC(=O)[C@@H](NC(=O)[C@H](Cc1c[nH]c2ccccc12)NC(C)=O)[C@@H](C)O)C(=O)N[C@H]1CSSC[C@@H](C(=O)N[C@@H](Cc2c[nH]c3ccccc23)C(=O)N2CCC[C@H]2C(=O)N[C@H](CCCCNC(=O)CN2CCN(CC(=O)O)CCN(CC(=O)O)CCN(CC(=O)O)CC2)C(N)=O)NC(=O)[C@H](CC(=O)O)NC(=O)[C@H](Cc2cnc[nH]2)NC(=O)[C@H](Cc2cccc3ccccc23)NC(=O)[C@H](CC(N)=O)NC(=O)[C@H](CC(N)=O)NC1=O [compound 74, Ac-W-T-I-C(3)-N-N-(1Nal)-H-D-C(3)-W-P-[D-Lys(DOTA)]-NH2] (Ac-WTICNN[1Nal]HDCWP[dK](DOTA)-NH2; disulfide 4-10)
1 to 10	CC[C@H](C)[C@H](NC(=O)[C@@H](NC(=O)[C@H](Cc1c[nH]c2ccccc12)NC(C)=O)[C@@H](C)O)C(=O)N[C@H]1CSSC[C@@H](C(=O)N[C@@H](Cc2cccc3ccccc23)C(=O)N2CCC[C@H]2C(=O)N[C@H](CCCCNC(=O)CN2CCN(CC(=O)O)CCN(CC(=O)O)CCN(CC(=O)O)CC2)C(N)=O)NC(=O)[C@H](CC(=O)O)NC(=O)[C@H](Cc2cnc[nH]2)NC(=O)[C@H](Cc2c[nH]c3ccccc23)NC(=O)[C@H](CC(N)=O)NC(=O)[C@H](CC(N)=O)NC1=O [compound 76, Ac-W-T-I-C(3)-N-N-W-H-D-C(3)-(1Nal)-P-[D-Lys(DOTA)]-NH2] (Ac-WTICNNWHDC[1Nal]P[dK](DOTA)-NH2; disulfide 4-10)
10 to 100	CC[C@H](C)[C@H](NC(=O)[C@@H](NC(=O)[C@H](Cc1c[nH]c2ccccc12)NC(C)=O)[C@@H](C)O)C(=O)N[C@H]1CSSC[C@@H](C(=O)N[C@@H](Cc2ccc3ccccc3c2)C(=O)N2CCC[C@H]2C(=O)N[C@H](CCCCNC(=O)CN2CCN(CC(=O)O)CCN(CC(=O)O)CCN(CC(=O)O)CC2)C(N)=O)NC(=O)[C@H](CC(=O)O)NC(=O)[C@H](Cc2cnc[nH]2)NC(=O)[C@H](Cc2c[nH]c3ccccc23)NC(=O)[C@H](CC(N)=O)NC(=O)[C@H](CC(N)=O)NC1=O [compound 77, Ac-W-T-I-C(3)-N-N-W-H-D-C(3)-(2Nal)-P-[D-Lys(DOTA)]-NH2] (Ac-WTICNNWHDC[2Nal]P[dK](DOTA)-NH2; disulfide 4-10)
1 to 10	CC[C@H](C)[C@H](NC(=O)[C@@H](NC(=O)[C@H](Cc1c[nH]c2ccccc12)NC(C)=O)[C@@H](C)O)C(=O)N[C@H]1CSSCC(C(=O)N[C@@H](Cc2c[nH]c3ccccc23)C(=O)N2CCC[C@H]2C(=O)N[C@H](CCCCNC(=O)CN2CCN(CC(=O)O)CCN(CC(=O)O)CCN(CC(=O)O)CC2)C(N)=O)NC(=O)[C@H](CC(=O)O)NC(=O)[C@H](Cc2cnc[nH]2)NC(=O)[C@H](Cc2c[nH]c3ncccc23)NC(=O)[C@H](CC(N)=O)NC(=O)[C@H](CC(N)=O)NC1=O (stereo partly drawn) [compound 85, Ac-W-T-I-C(3)-N-N-(7Aza-W)-H-D-C(3)-W-P-[D-Lys(DOTA)]-NH2] (Ac-WTICNN[Trp(7-aza)]HD[ξC]WP[dK](DOTA)-NH2; disulfide 4-10)
10 to 100	CC[C@H](C)[C@H](NC(=O)[C@@H](NC(=O)[C@H](Cc1c[nH]c2ccccc12)NC(C)=O)[C@@H](C)O)C(=O)N[C@H]1CSSC[C@@H](C(=O)N[C@@H](Cc2c[nH]c3ccccc23)C(=O)N2CCC[C@H]2C(=O)N[C@H](CCCCNC(=O)CN2CCN(CC(=O)O)CCN(CC(=O)O)CCN(CC(=O)O)CC2)C(N)=O)NC(=O)[C@H](CC(=O)O)NC(=O)[C@H](Cc2cnc[nH]2)NC(=O)[C@H](Cc2c[nH]c3ccc(OC)cc23)NC(=O)[C@H](CC(N)=O)NC(=O)[C@H](CC(N)=O)NC1=O [compound 86, Ac-W-T-I-C(3)-N-N-(5Ome-W)-H-D-C(3)-W-P-[D-Lys(DOTA)]-NH2] (Ac-WTICNN[Trp(5-OMe)]HDCWP[dK](DOTA)-NH2; disulfide 4-10)
10 to 100	CC[C@H](C)[C@H](NC(=O)[C@@H](NC(=O)[C@H](Cc1c[nH]c2ccccc12)NC(C)=O)[C@@H](C)O)C(=O)N[C@H]1CSSC[C@@H](C(=O)N[C@@H](Cc2c[nH]c3ncccc23)C(=O)N2CCC[C@H]2C(=O)N[C@H](CCCCNC(=O)CN2CCN(CC(=O)O)CCN(CC(=O)O)CCN(CC(=O)O)CC2)C(N)=O)NC(=O)[C@H](CC(=O)O)NC(=O)[C@H](Cc2cnc[nH]2)NC(=O)[C@H](Cc2c[nH]c3ccccc23)NC(=O)[C@H](CC(N)=O)NC(=O)[C@H](CC(N)=O)NC1=O [compound 87, Ac-W-T-I-C(3)-N-N-W-H-D-C(3)-(7Aza-W)-P-[D-Lys(DOTA)]-NH2] (Ac-WTICNNWHDC[Trp(7-aza)]P[dK](DOTA)-NH2; disulfide 4-10)
100 to 300	CC[C@H](C)[C@H](NC(=O)[C@@H](NC(=O)[C@H](Cc1c[nH]c2ccccc12)NC(C)=O)[C@@H](C)O)C(=O)N[C@H]1CSSC[C@@H](C(=O)N[C@@H](Cc2c[nH]c3ccc(OC)cc23)C(=O)N2CCC[C@H]2C(=O)N[C@H](CCCCNC(=O)CN2CCN(CC(=O)O)CCN(CC(=O)O)CCN(CC(=O)O)CC2)C(N)=O)NC(=O)[C@H](CC(=O)O)NC(=O)[C@H](Cc2cnc[nH]2)NC(=O)[C@H](Cc2c[nH]c3ccccc23)NC(=O)[C@H](CC(N)=O)NC(=O)[C@H](CC(N)=O)NC1=O [compound 88, Ac-W-T-I-C(3)-N-N-W-H-D-C(3)-(5Ome-W)-P-[D-Lys(DOTA)]-NH2] (Ac-WTICNNWHDC[Trp(5-OMe)]P[dK](DOTA)-NH2; disulfide 4-10)
1 to 10	CC[C@H](C)[C@H](NC(=O)[C@@H](NC(=O)[C@H](Cc1c[nH]c2ccccc12)NC(C)=O)[C@@H](C)O)C(=O)N[C@H]1CSSC[C@@H](C(=O)NC(Cc2c[nH]c3ccccc23)C(=O)N2CCC[C@H]2C(=O)N[C@H](CCCCNC(=O)COCCOCCOCCOCCOCCOCCOCCOCCNC(=O)CN2CCN(CC(=O)O)CCN(CC(=O)O)CCN(CC(=O)O)CC2)C(N)=O)NC(=O)[C@H](CC(=O)O)NC(=O)[C@H](Cc2cnc[nH]2)NC(=O)[C@H](Cc2c[nH]c3ccccc23)NC(=O)[C@H](CC(N)=O)NC(=O)[C@H](CC(N)=O)NC1=O (stereo partly drawn) [compound 89, Ac-W-T-I-C(3)-N-N-W-H-D-C(3)-W-P-(D-Lys)-PEG8-DOTA-NH2] (Ac-WTICNNWHDC[ξW]P[dK](X2)-NH2; disulfide 4-10)
10 to 100	CCCCCC(=O)NCC[C@@H]1NC(=O)[C@@H](NC(=O)[C@@H](NC(=O)[C@@H](NC(=O)[C@H](Cc2c[nH]c3ccccc23)NC(C)=O)[C@@H](C)O)[C@@H](C)CC)CSSC[C@@H](C(=O)N[C@@H](Cc2c[nH]c3ccccc23)C(=O)N2CCC[C@H]2C(=O)N[C@H](CCCCNC(=O)CN2CCN(CC(=O)O)CCN(CC(=O)O)CCN(CC(=O)O)CC2)C(N)=O)NC(=O)[C@H](CC(=O)O)NC(=O)[C@H](Cc2cnc[nH]2)NC(=O)[C@H](Cc2c[nH]c3ccccc23)NC(=O)[C@H](CC(N)=O)NC1=O [compound 90, Ac-W-T-I-C(3)-(DAB-4-NHCOC5H11)-N-W-H-D-C(3)-W-P-[D-Lys(DOTA)]-NH2] (Ac-WTIC[Dab](Hexanoyl)NWHDCWP[dK](DOTA)-NH2; disulfide 4-10)
10 to 100	CCCCCCCC(=O)NCC[C@@H]1NC(=O)[C@@H](NC(=O)[C@@H](NC(=O)[C@@H](NC(=O)[C@H](Cc2c[nH]c3ccccc23)NC(C)=O)[C@@H](C)O)[C@@H](C)CC)CSSC[C@@H](C(=O)N[C@@H](Cc2c[nH]c3ccccc23)C(=O)N2CCC[C@H]2C(=O)N[C@H](CCCCNC(=O)CN2CCN(CC(=O)O)CCN(CC(=O)O)CCN(CC(=O)O)CC2)C(N)=O)NC(=O)[C@H](CC(=O)O)NC(=O)[C@H](Cc2cnc[nH]2)NC(=O)[C@H](Cc2c[nH]c3ccccc23)NC(=O)[C@H](CC(N)=O)NC1=O [compound 91, Ac-W-T-I-C(3)-(DAB-4-NHCOC7H15)-N-W-H-D-C(3)-W-P-[D-Lys(DOTA)]-NH2] (Ac-WTIC[Dab](Octanoyl)NWHDCWP[dK](DOTA)-NH2; disulfide 4-10)
10 to 100	CCCCCC(=O)NCC[C@@H]1NC(=O)[C@H](Cc2c[nH]c3ccccc23)NC(=O)[C@H](CC(N)=O)NC(=O)[C@H](CC(N)=O)NC(=O)[C@@H](NC(=O)[C@@H](NC(=O)[C@@H](NC(=O)[C@H](Cc2c[nH]c3ccccc23)NC(C)=O)[C@@H](C)O)[C@@H](C)CC)CSSC[C@@H](C(=O)N[C@@H](Cc2c[nH]c3ccccc23)C(=O)N2CCC[C@H]2C(=O)N[C@H](CCCCNC(=O)CN2CCN(CC(=O)O)CCN(CC(=O)O)CCN(CC(=O)O)CC2)C(N)=O)NC(=O)[C@H](CC(=O)O)NC1=O [compound 92, Ac-W-T-I-C(3)-N-N-W-(DAB-4-NHCOC5H11)-D-C(3)-W-P-[D-Lys(DOTA)]-NH2] (Ac-WTICNNW[Dab](Hexanoyl)DCWP[dK](DOTA)-NH2; disulfide 4-10)
